Patent US11155664B2, “Polymeric nanoparticles useful in theranostics” (THE GOVERNING COUNCIL OF THE UNIVERSITY OF TORONTO, priority 2012, dated 2021)
Values after ≈ are worked out from the molar mass of the structure shown.

Assays:
[1] = mouse, in vivo
Source text: The data are presented as mean±standard deviation of three independent runs.
T1-weighted images provide only a qualitative reflection of contrast agent distribution, primarily because of the sensitivity profiles of the RF transmit and receiver coils. In contrast, R1 maps provide a better quantitative measure of the contrast agent distribution in the whole body.
The temporal behaviour of the whole-body distribution of contrast agents was quantified by constructing R1 maps at multiple time-points following injection without moving the animal (FIG. 27A). Organ-specific concentration profiles were then quantified directly from R1 measurements in manually segmented regions-of-interest according to Equation 1 (described previously), (FIG. 27B,C).
The R1 of the left ventricular (LV) blood provides a useful indicator of vascular contrast agent enhancement in whole-body images.

[2] = system: MDA-MB435/LCC6/WT cells; assay: MTT cell viability, wild-type cells; assay type: cell-based, human
Procedure: Cells with no treatment and incubated with blank nanoparticles were used as control for free drug and drug loaded nanoparticle respectively. Cell viability is expressed as the percent of control for each treatment group. Data points represent the mean±standard deviation of the number of trials indicated for each experiment.
The cells were treated with increasing concentrations of doxorubicin or doxorubicin-loaded nanoparticles for 24 hrs and 48 hrs, and the cell viability was determined using MTT assay.

Compound | LV blood R1 [1] | LV blood ΔR1 [1] | IC50 ([2]; 24 hrs treatment) | IC50 ([2]; 48 hrs treatment)
CNC(=O)CN(CCN(CCN(CC(=O)[O-])CC(=O)NC)CC(=O)[O-])CC(=O)[O-].[Gd+3] [Omniscan®, diethylenetriamine pentaacetic acid bismethylamide gadolinium] | ~0.7 s⁻¹ | ~0.1 s⁻¹ |  | 
COc1cccc2c1C(=O)c1c(O)c3c(c(O)c1C2=O)C[C@@](O)(C(=O)CO)C[C@@H]3O[C@H]1C[C@H](N)[C@H](O)[C@H](C)O1 [free Dox, doxorubicin] |  |  | 0.34 mg/L (≈ 0.626 µM) | 0.07 mg/L (≈ 0.129 µM)
